US20230241071A1, “COMBINATION TREATMENT OF LIVER DISORDERS” (Terns Pharmaceuticals, Inc., priority 2021, published 2023)
“Also recorded” adds a separate entry of the source.

Legend:
[1] = Multiple-ascending dose trial of Compound 1 in healthy participants: safety and PK; format: in vivo, human; conditions: for Cmax / Tmax / AUC(0-t) / half-life: human, plasma; for Cmax / AUC(0-t): mean (CV %); for Tmax / half-life: median (min, max)
Procedure: A multiple-ascending dose clinical trial of Compound 1 was performed.

[2] = molecular target: T1, VAP-1 (Homo sapiens, UniProt Q16853); test: Compound 1 10 mg QD for 12 weeks in adults with non-cirrhotic NASH phenotype; format: in vivo
T1 construct: from tissue; host or cells: plasma of trial patients
T1 sequence (Q16853 29-763 limits assumed): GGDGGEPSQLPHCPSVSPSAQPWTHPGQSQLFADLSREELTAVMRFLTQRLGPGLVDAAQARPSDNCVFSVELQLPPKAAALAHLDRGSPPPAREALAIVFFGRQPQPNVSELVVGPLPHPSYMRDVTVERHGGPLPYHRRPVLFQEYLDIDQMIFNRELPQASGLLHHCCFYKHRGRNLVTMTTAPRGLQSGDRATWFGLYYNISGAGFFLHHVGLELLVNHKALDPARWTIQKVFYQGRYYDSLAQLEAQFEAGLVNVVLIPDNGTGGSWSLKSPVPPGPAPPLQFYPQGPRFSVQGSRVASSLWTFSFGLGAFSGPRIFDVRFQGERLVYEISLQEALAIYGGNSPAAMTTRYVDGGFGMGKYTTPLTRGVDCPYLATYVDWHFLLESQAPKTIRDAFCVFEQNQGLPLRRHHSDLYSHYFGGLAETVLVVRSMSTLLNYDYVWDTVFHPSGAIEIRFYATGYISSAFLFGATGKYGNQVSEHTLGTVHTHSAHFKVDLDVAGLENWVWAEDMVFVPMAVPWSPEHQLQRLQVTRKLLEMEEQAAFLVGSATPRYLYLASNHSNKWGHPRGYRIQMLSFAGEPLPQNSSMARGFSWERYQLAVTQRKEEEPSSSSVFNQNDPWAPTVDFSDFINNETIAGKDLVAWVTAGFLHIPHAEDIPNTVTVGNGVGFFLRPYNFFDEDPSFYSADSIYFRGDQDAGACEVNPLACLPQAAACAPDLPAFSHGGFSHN
Procedure: Part 1 interim analysis primary endpoint was safety assessed by adverse events (AEs) and laboratory tests; percent change from baseline (BL) in plasma VAP-1 activity was a secondary endpoint. Exploratory imaging and blood-based biomarkers of liver inflammation and fibrosis were also assessed. Analyses of change (or percent change) from baseline used an ANCOVA model with change (or percent change) from baseline as the dependent variable including treatment group and randomization strata as fixed effects and baseline as a covariate.

[3] = molecular target: T2, OATP1B3 (Homo sapiens, UniProt Q9NPD5); test: In vitro transporter inhibition, OATP1B3; format: in vitro ADME
T2 sequence (Q9NPD5 1-702): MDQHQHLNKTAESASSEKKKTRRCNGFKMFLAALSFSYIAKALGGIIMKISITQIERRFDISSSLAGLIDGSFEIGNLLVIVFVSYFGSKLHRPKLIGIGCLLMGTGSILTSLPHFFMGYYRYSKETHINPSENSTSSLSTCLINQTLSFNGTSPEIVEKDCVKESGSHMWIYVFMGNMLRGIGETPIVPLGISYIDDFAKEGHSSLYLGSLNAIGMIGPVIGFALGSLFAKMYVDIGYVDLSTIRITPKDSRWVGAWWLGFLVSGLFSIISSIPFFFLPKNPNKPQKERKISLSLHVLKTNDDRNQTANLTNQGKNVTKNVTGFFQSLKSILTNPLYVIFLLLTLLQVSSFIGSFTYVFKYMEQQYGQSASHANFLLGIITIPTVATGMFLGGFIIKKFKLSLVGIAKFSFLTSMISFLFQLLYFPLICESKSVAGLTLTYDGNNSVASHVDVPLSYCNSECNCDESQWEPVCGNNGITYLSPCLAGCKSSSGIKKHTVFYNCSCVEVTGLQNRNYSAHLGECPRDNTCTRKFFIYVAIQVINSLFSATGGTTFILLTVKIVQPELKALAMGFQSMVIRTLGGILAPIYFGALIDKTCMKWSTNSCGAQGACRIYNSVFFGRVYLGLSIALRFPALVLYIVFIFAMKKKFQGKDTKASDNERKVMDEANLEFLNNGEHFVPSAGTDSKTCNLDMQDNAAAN

[4] = molecular target: P-glycoprotein (P-gp) (Homo sapiens, UniProt P08183); format: in vitro ADME
[5] = 10 mg, 10 mg QD, Last day (of 14)

P-glycoprotein (P-gp), sequence (P08183 whole entry): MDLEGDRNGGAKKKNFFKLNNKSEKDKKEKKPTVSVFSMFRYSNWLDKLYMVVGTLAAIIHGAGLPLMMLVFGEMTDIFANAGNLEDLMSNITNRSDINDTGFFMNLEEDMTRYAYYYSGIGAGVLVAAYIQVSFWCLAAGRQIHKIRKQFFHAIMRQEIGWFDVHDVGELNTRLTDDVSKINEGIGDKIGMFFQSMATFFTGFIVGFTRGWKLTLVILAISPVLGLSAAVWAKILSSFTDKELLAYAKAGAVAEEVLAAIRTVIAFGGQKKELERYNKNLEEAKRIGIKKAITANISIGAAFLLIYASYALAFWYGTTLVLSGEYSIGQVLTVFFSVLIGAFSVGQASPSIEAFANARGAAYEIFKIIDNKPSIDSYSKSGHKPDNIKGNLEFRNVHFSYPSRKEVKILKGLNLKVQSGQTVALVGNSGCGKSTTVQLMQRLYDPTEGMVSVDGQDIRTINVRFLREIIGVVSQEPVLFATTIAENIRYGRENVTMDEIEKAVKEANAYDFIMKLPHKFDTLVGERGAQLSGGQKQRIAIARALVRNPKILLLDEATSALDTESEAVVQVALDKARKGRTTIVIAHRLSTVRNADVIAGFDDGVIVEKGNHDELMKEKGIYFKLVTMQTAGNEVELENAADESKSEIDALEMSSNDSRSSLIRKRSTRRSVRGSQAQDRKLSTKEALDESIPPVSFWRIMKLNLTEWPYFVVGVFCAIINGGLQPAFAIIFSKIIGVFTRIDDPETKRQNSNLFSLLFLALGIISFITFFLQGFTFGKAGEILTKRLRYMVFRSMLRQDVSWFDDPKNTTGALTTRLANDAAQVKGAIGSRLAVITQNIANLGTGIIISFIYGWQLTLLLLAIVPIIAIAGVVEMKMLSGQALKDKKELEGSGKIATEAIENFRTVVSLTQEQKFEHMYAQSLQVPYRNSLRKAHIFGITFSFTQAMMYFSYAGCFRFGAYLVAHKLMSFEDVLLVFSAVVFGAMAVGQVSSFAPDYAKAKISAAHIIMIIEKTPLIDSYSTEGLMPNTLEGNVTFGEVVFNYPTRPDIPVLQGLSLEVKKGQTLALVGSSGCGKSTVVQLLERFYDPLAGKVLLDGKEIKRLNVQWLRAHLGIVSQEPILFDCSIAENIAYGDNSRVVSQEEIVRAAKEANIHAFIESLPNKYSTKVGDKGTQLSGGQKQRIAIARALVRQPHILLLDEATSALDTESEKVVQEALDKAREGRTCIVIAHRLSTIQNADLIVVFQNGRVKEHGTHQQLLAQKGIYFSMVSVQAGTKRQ

COC1CCN(c2ncc(OC/C(=C/F)CN)cn2)CC1 [Compound 1, (E)-3-fluoro-2-(((2-(4-methoxypiperidin-1-yl)pyrimidin-5-yl)oxy)methyl)prop-2-en-1-amine]
Subject incidence of TEAEs considered possibly treatment-related ([1]; 1 mg QD 7 days (n = 6)): 1 (16.7) n (%) | Subject incidence of any TEAE ([1]; 1 mg QD 7 days (n = 6)): 2 (33.3) n (%) | TEAE frequency: Back pain ([1]; 1 mg QD 7 days (n = 6)): 0 | TEAE frequency: Catheter site inflammation ([1]; 1 mg QD 7 days (n = 6)): 0 | TEAE frequency: Contusion ([1]; 1 mg QD 7 days (n = 6)): 0 | TEAE frequency: Dermatitis contact ([1]; 1 mg QD 7 days (n = 6)): 1 (16.7) | TEAE frequency: Diarrhea ([1]; 1 mg QD 7 days (n = 6)): 0 | TEAE frequency: Dizziness ([1]; 1 mg QD 7 days (n = 6)): 1 (16.7) | TEAE frequency: Medical device site reaction ([1]; 1 mg QD 7 days (n = 6)): 0 | TEAE frequency: Rhinitis ([1]; 1 mg QD 7 days (n = 6)): 0 | TEAE frequency: headache ([1]; 1 mg QD 7 days (n = 6)): 1 (12.5) | Subject incidence of TEAEs considered possibly treatment-related ([1]; 4 mg QD 7 days (n = 6)): 0 n (%) | Subject incidence of any TEAE ([1]; 4 mg QD 7 days (n = 6)): 2 (33.3) n (%) | TEAE frequency: Back pain ([1]; 4 mg QD 7 days (n = 6)): 0 | TEAE frequency: Catheter site inflammation ([1]; 4 mg QD 7 days (n = 6)): 0 | TEAE frequency: Contusion ([1]; 4 mg QD 7 days (n = 6)): 0 | TEAE frequency: Dermatitis contact ([1]; 4 mg QD 7 days (n = 6)): 2 (33.3) | TEAE frequency: Diarrhea ([1]; 4 mg QD 7 days (n = 6)): 0 | TEAE frequency: Dizziness ([1]; 4 mg QD 7 days (n = 6)): 0 | TEAE frequency: Medical device site reaction ([1]; 4 mg QD 7 days (n = 6)): 0 | TEAE frequency: Rhinitis ([1]; 4 mg QD 7 days (n = 6)): 0 | TEAE frequency: headache ([1]; 4 mg QD 7 days (n = 6)): 0 | time to steady state ([1]; 10 mg QD): 7 days | Subject incidence of TEAEs considered possibly treatment-related ([1]; 10 mg QD 14 days (n = 6)): 0 n (%) | Subject incidence of any TEAE ([1]; 10 mg QD 14 days (n = 6)): 6 (100) n (%) | TEAE frequency: Back pain ([1]; 10 mg QD 14 days (n = 6)): 0 | TEAE frequency: Catheter site inflammation ([1]; 10 mg QD 14 days (n = 6)): 0 | TEAE frequency: Contusion ([1]; 10 mg QD 14 days (n = 6)): 0 | TEAE frequency: Dermatitis contact ([1]; 10 mg QD 14 days (n = 6)): 0 | TEAE frequency: Diarrhea ([1]; 10 mg QD 14 days (n = 6)): 0 | TEAE frequency: Dizziness ([1]; 10 mg QD 14 days (n = 6)): 0 | TEAE frequency: Medical device site reaction ([1]; 10 mg QD 14 days (n = 6)): 6 (100) | TEAE frequency: Rhinitis ([1]; 10 mg QD 14 days (n = 6)): 1 (16.7) | TEAE frequency: headache ([1]; 10 mg QD 14 days (n = 6)): 0 | half-life versus dose ([1]; 1, 4, 10 mg QD): increased with dose | plasma PK exposure, dose proportionality ([1]; between dose groups on Day 1): greater than dose proportional | Cmax ([1]; 1 mg, 1 mg QD, Day 1): 0.568 ng/mL | Tmax ([1]; 1 mg, 1 mg QD, Day 1): 1.53 h | AUC(0-t) ([1]; 1 mg, 1 mg QD, Last day (of 7)): 13.3 ng·h/mL | Cmax ([1]; 1 mg, 1 mg QD, Last day (of 7)): 2.75 ng/mL | Tmax ([1]; 1 mg, 1 mg QD, Last day (of 7)): 2.51 h | AUC(0-t) ([1]; 4 mg, 4 mg QD, Day 1): 17.1 ng·h/mL | Cmax ([1]; 4 mg, 4 mg QD, Day 1): 5.11 ng/mL | Tmax ([1]; 4 mg, 4 mg QD, Day 1): 2.02 h | AUC(0-t) ([1]; 4 mg, 4 mg QD, Last day (of 7)): 198 ng·h/mL | Cmax ([1]; 4 mg, 4 mg QD, Last day (of 7)): 18.6 ng/mL | Tmax ([1]; 4 mg, 4 mg QD, Last day (of 7)): 3.03 h | AUC(0-t) ([1]; 10 mg, 10 mg QD, Day 1): 102 ng·h/mL | Cmax ([1]; 10 mg, 10 mg QD, Day 1): 17.7 ng/mL | Tmax ([1]; 10 mg, 10 mg QD, Day 1): 1.9 h | AUC(0-t) [1, 5]: 656 ng·h/mL | Cmax [1, 5]: 47.5 ng/mL | Tmax [1, 5]: 3.98 h | half-life ([1]; 1 mg QD, Last day (of 7)): 2.27 h | half-life ([1]; 4 mg QD, Last day (of 7)): 6.71 h | half-life ([1]; 10 mg QD, Last day (of 14)): 13.3 h | Subject incidence of TEAEs considered possibly treatment-related ([1]; overall Compound 1 (n = 18)): 1 (5.6) n (%) | Subject incidence of any TEAE ([1]; overall Compound 1 (n = 18)): 10 (55.6) n (%) | TEAE frequency: Back pain ([1]; overall Compound 1 (n = 18)): 0 | TEAE frequency: Catheter site inflammation ([1]; overall Compound 1 (n = 18)): 0 | TEAE frequency: Contusion ([1]; overall Compound 1 (n = 18)): 0 | TEAE frequency: Dermatitis contact ([1]; overall Compound 1 (n = 18)): 3 (16.7) | TEAE frequency: Diarrhea ([1]; overall Compound 1 (n = 18)): 0 | TEAE frequency: Dizziness ([1]; overall Compound 1 (n = 18)): 1 (5.6) | TEAE frequency: Medical device site reaction ([1]; overall Compound 1 (n = 18)): 6 (33.3) | TEAE frequency: Rhinitis ([1]; overall Compound 1 (n = 18)): 1 (5.6) | TEAE frequency: headache ([1]; overall Compound 1 (n = 18)): 1 (5.6) | safety and tolerability ([1]; up to 10 mg QD for 14 days): mild (grade 1); also recorded: safe and well tolerated | change from BL in cT1, liver fat fraction, liver enzymes, or cytokeratin-18 vs placebo ([2]; 10 mg QD 12 weeks): no statistically significant differences | safety and tolerability ([2]; 10 mg QD 12 weeks): well-tolerated with a safety profile similar to placebo | inhibition at 10 mg ([2]; 10 mg QD, most subjects, by week 2, sustained through week 12, read-out: inhibition of plasma VAP-1 activity): > 98%

N#Cc1nn(-c2cc(Cl)c(Oc3n[nH]c(=O)c4ccccc34)c(Cl)c2)c(=O)[nH]c1=O [Compound 2, 2-(3,5-dichloro-4-((4-oxo-3,4-dihydrophthalazin-1-yl)oxy)phenyl)-3,5-dioxo-2,3,4,5-tetrahydro-1,2,4-triazine-6-carbonitrile]
IC50 [3]: 710 nM

Cn1cc(C(=O)O)c2ccc(N3CCC(OCc4c(-c5c(Cl)cccc5Cl)noc4C4CC4)CC3)cc21 [Compound 3]
IC50 [4]: 3920 nM
